Reference: publication PMC5159239 (Cell host & microbe, 2016)

B1: RIG-I-QQ (natural protein)
chain: MTTEQRRSLQAFQDYIRKTLDPTYILSYMAPWFREEEVQYIQAEKNNKGPMEAATLFLKFLLELQEEGWFRGFLDALDHAGYSGLYEAIESWDFKKIEKLEEYRLLLKRLQPEFKTRIIPTDIISDLSECLINQECEEILQICSTKGMMAGAEKLVECLLRSDKENWPKTLKLALEKERNKFSELWIVEKGIKDVETEDLEDKMETSDIQIFYQEDPECQNLSENSCPPSEVSDTNLYSPFKPRNYQLELALPAMKGKNTIICAPTGCGKTFVSLLICEHHLKKFPQGQKGKVVFFANQIPVYEQQKSVFSKYFERHGYRVTGISGATAENVPVEQIVENNDIIILTPQILVNNLKKGTIPSLSIFTLMIFDECHNTSKQHPYNMIMFNYLDQKLGGSSGPLPQVIGLTASVGVGDAKNTDEALDYICKLCASLDASVIATVKHNLEELEQVVYKPQKFFRKVESRISDKFKYIIAQLMRDTESLAKRICKDLEQLSQIQNREFGTQKYEQWIVTVQKACMVFQMPDKDEESRICKALFLYTSHLRKYQDALIISEHARMKDALDYLKDFFSNVRAAGFDEIEQDLTQRFEEKLQELESVSRDPSNENPKLEDLCFILQEEYHLNPETITILFVKTRALVDALKNWIEGNPKLSFLKPGILTGRGKTNQNTGMTLPAQKCILDAFKASGDHNILIATSVADEGIDIAQCNLVILYEYVGNVIKMIQTRGRGRARGSKCFLLTSNAGVIEKEQINMYKEKMMNDSILRLQTWDEAVFREKILHIQTHEKFIRDSQEKPKPVPDKENKKLLCRKCKALACYTADVRVIEECHYTVLGDAFKECFVSRPHPKPKQFSSFEKRAKIFCARQNCSHDWGIHVKYKTFEIPVIKIESFVVEDIATGVQTLYSKWKDFHFEKIPFDPAEMSK

Assays:
UL37C (571-1123) = UL37C (571-1123) (Human alphaherpesvirus 1 strain 17, UniProt P10221); experiment: tandem mass spectrometry of cysteine labelling; type: binding; settings: covalent at C819; 45 min; also tested at 1 µM
SEC = target: the molecule itself; experiment: SEC

UL37C (571-1123), sequence (P10221 571-1123): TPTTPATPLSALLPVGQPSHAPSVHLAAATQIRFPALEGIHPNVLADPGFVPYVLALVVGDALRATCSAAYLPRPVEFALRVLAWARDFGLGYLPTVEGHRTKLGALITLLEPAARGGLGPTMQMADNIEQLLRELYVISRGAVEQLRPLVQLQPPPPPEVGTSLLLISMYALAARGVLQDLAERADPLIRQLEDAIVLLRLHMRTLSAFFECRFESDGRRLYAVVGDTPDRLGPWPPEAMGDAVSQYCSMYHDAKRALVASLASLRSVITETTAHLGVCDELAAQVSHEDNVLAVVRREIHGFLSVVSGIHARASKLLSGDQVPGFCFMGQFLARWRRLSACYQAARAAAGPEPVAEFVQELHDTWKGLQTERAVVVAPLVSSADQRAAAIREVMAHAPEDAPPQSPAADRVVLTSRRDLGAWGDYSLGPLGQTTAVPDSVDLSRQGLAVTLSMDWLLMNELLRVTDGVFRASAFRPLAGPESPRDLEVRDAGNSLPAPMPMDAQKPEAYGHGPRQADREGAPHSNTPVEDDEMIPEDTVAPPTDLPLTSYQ

| Molecule | % C819 labelled at 10 μM (UL37C (571-1123)) [%] | binding result (SEC) |
| --- | --- | --- |
| O=C(CCl)NCO [2-Chloro-N-(hydroxymethyl)acetamide] | 42.5 |  |
| B1 |  | binds |
